Results from paper PMC12430278, “A Simple and Reliable Method for the Determination of Isorhapontigenin in Murine Biological Matrices: Application in a Tissue Distribution Study” (Molecules, 2025).

Test: Stability of stock solutions
Assay type: physicochemical
Settings: DMSO stock solution, stock solution 1.00 mg/mL, n = 6, read-out: Remaining (%, Mean ± SD)
Protocol: Stock solutions of ISO and trans-stilbene (internal standard, IS) were prepared in DMSO at a final concentration of 1 mg/mL. These solutions were stored at −20 °C and protected from light. The calibration standard and quality control (QC) samples were prepared by serial dilution of the ISO stock solution with pooled blank murine plasma or respective tissue homogenate.
The stability of ISO was evaluated under various storage conditions. Stock solution stability was assessed after storage at room temperature (25 °C) and –20 °C. The stability of ISO in plasma was examined under the following conditions: short-term storage (25 °C for 24 h), long-term storage (–80 °C for 52 days), three freeze–thaw cycles, and post-preparative stability (samples kept in an autosampler at 4 °C for more than 24 h). As it is difficult to evaluate ISO stability directly in tissues, only the short-term stability in tissue homogenates was assessed (6 h on ice). Similarly, post-preparative stability in processed tissue samples was assessed using liver homogenate as a representative, due to the complexity of the hepatic matrix. Stability was considered acceptable if 85–115% of the initial ISO concentration remained.

Compound: COc1cc(/C=C/c2cc(O)cc(O)c2)ccc1O [ISO, trans-3,5,4′-trihydroxy-3′-methoxystilbene]
- remaining at 24 h, 1 mg/mL (stored at room temperature for 24 h): 94.6 ± 0.7%
- remaining at 480 h, 1 mg/mL (stored at −20 °C for 20 days): 105 ± 1.4%
